Data taken from patent US8901118B2, “Compounds and methods for kinase modulation, and indications therefor” (Plexxikon Inc., priority 2010, dated 2014).
pIC50: −log10 of the molar value.

Biological target: CYP3A4(BQ) (Homo sapiens, UniProt P08684)
Assay: CYP3A4(BQ) inhibition
Assay type: in vitro ADME
Conditions: CYP3A4, substrate BQ; read-out: Cyp IC50 3A4(BQ)
How it was run: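 Inhibition of human CYP3A4 (BQ substrate) was measured by fluorescence, since blocking metabolism of a known substrate lowers the fluorescent product signal. Compounds dissolved in DMSO at 100 mM were diluted into acetonitrile and then into NADPH regeneration cofactor mix, serially diluted 1:1 across 10 points, and preincubated in 384 well plates for 10 minutes at 37° C.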

Chain of CYP3A4(BQ) (P08684 whole entry): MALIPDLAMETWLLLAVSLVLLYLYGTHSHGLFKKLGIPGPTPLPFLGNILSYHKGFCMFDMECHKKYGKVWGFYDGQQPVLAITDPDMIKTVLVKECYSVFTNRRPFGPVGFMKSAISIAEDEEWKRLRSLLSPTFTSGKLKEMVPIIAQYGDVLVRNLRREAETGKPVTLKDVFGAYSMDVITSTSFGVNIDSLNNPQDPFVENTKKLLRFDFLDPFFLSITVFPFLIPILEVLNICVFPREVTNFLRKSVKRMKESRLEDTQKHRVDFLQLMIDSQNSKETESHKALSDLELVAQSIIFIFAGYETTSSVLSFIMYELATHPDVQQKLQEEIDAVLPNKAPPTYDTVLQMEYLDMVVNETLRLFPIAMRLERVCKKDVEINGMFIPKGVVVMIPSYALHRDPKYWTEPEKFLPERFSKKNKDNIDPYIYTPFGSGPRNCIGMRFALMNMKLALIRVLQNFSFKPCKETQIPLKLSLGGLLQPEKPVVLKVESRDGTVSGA

pIC50	Compound
< 5.00	Clc1cnc2[nH]cc(Cc3cnc(NC4CCCCC4)nc3)c2c1 [Compound P-3001, [5-(5-chloro-1H-pyrrolo[2,3-b]pyridin-3-ylmethyl)-pyrimidin-2-yl]-cyclohexyl-amine]
< 5.00	COc1ccc(Nc2ccc(C(=O)c3c[nH]c4ncc(C)cc34)c(F)n2)cn1 [Compound P-3040, [2-Fluoro-6-(6-methoxy-pyridin-3-ylamino)-pyridin-3-yl]-(5-methyl-1H-pyrrolo[2,3-b]pyridin-3-yl)-methanone]
< 5.00	Cc1cnc2[nH]cc(Cc3ccc(Nc4ccc(C)nc4)nc3F)c2c1 [Compound P-3041, [6-Fluoro-5-(5-methyl-1H-pyrrolo[2,3-b]pyridin-3-ylmethyl)-pyridin-2-yl]-(6-methyl-pyridin-3-yl)-amine]
< 5.00	Cc1cnc2[nH]cc(C(=O)c3ccc(Nc4ccc(C)nc4)nc3F)c2c1 [Compound P-3043, [2-Fluoro-6-(6-methyl-pyridin-3-ylamino)-pyridin-3-yl]-(5-methyl-1H-pyrrolo[2,3-b]pyridin-3-yl)-methanone]
< 5.00	Cc1ccc(Nc2ccc(C(=O)c3c[nH]c4ncc(Cl)cc34)c(F)n2)cn1 [Compound P-3044, (5-Chloro-1H-pyrrolo[2,3-b]pyridin-3-yl)-[2-fluoro-6-(6-methyl-pyridin-3-ylamino)-pyridin-3-yl]-methanone]
< 5.00	CCc1ccc(Nc2ccc(Cc3c[nH]c4ncc(C)cc34)c(F)n2)cn1 [Compound P-3048, (6-Ethyl-pyridin-3-yl)-[6-fluoro-5-(5-methyl-1H-pyrrolo[2,3-b]pyridin-3-ylmethyl)-pyridin-2-yl]-amine]
< 5.00	CCc1ccc(Nc2ccc(C(=O)c3c[nH]c4ncc(C)cc34)c(F)n2)cn1 [Compound P-3049, [6-(6-Ethyl-pyridin-3-ylamino)-2-fluoro-pyridin-3-yl]-(5-methyl-1H-pyrrolo[2,3-b]pyridin-3-yl)-methanone]
< 5.00	Cc1cnc2[nH]cc(Cc3ccc(Nc4ccc(C5CC5)nc4)nc3F)c2c1 [Compound P-3050, (6-Cyclopropyl-pyridin-3-yl)-[6-fluoro-5-(5-methyl-1H-pyrrolo[2,3-b]pyridin-3-ylmethyl)-pyridin-2-yl]-amine]
< 5.00	Cc1cnc2[nH]cc(C(=O)c3ccc(Nc4ccc(C5CC5)nc4)nc3F)c2c1 [Compound P-3051, [6-(6-Cyclopropyl-pyridin-3-ylamino)-2-fluoro-pyridin-3-yl]-(5-methyl-1H-pyrrolo[2,3-b]pyridin-3-yl)-methanone]
< 5.00	O=C(c1ccc(Nc2ccc(C3CC3)nc2)nc1F)c1c[nH]c2ncccc12 [Compound P-3052, [6-(6-Cyclopropyl-pyridin-3-ylamino)-2-fluoro-pyridin-3-yl]-(1H-pyrrolo[2,3-b]pyridin-3-yl)-methanone]
< 5.00	Fc1nc(Nc2ccc(C3CC3)nc2)ccc1Cc1c[nH]c2ncccc12 [Compound P-3053, (6-Cyclopropyl-pyridin-3-yl)-[6-fluoro-5-(1H-pyrrolo[2,3-b]pyridin-3-ylmethyl)-pyridin-2-yl]-amine]
< 5.00	COc1ccc(Nc2ccc(Cc3c[nH]c4ncnc(C)c34)c(F)n2)cn1 [Compound P-4002, [6-Fluoro-5-(4-methyl-7H-pyrrolo[2,3-d]pyrimidin-5-ylmethyl)-pyridin-2-yl]-(6-methoxy-pyridin-3-yl)-amine]
< 5.00	COc1ccc(Nc2ccc(C(=O)c3c[nH]c4ncnc(C5CC5)c34)c(F)n2)cn1 [Compound P-4022, (4-cyclopropyl-7H-pyrrolo[2,3-d]pyrimidin-5-yl)-[2-fluoro-6-(6-methoxy-pyridin-3-ylamino)-pyridin-3-yl]-methanone]
< 5.00	COc1ccc(Nc2ccc(Cc3c[nH]c4ncnc(C5CC5)c34)c(F)n2)cn1 [Compound P-4023, [5-(4-cyclopropyl-7H-pyrrolo[2,3-d]pyrimidin-5-ylmethyl)-6-fluoro-pyridin-2-yl]-(6-methoxy-pyridin-3-yl)-amine]
